The values that follow come from US6146554A, “Photochromic naphtopyrane colorants, method for the production and use thereof, photochromic object” (Optische Werke G. Rodenstock, priority 1997, dated 2000).

What all share (format): physicochemical
A short description of data set [1]: Absorption maximums of the closed and open forms and colour (Table 1, FIGS. 4 and 5). To be noted: for max closed form / max closed form (shoulder): closed (not excited) form; for max closed form: Transhade-150 test specimen, 500 ppm; for colour / max open form: open (excited) form. The text has this:
For illustration of the aforedescribed bathochromic shift of the inventive compounds, compared against prior art, comparative tests have been carried out.
The first three compounds in Table 1--V1, V2 and Example 3--correspond to prior art (cf. WO 96/14596); the production of V1 and V2 is described there in details.
The production of the test specimens and the measuring methodology are described in details i the Examples.
FIGS. 4 and 5 show the absorption of the closed form or the absorption of the open form, compared against the absorption of the prior art compounds V1 and V2, expressed by plotting the extinction versus the wavelength. For a better recognition of the bathochromic shift a normalisation of the absorption intensity to roughly the same value has been made in the open form.
Absorption maximums of the open and closed forms, starting out
(§1) 500 ppm of the respective photochromic dye are dissolved in the employed monomer (TRANSHADE-150 from the company of Tokuyama; index of refraction 1.52) at room temperature while stirring. After the addition of an initiator of the alkyl peroxy-ester type (1.5% by weight) degassing is performed twice and subsequently the polymerisation is carried out in correspondence with the temperature programme recommended by the Tokuyama company. The glass casting moulds are coloured in black so that the entirety of the photochromic dyes may be integrated into the matrix in a non-excited state. After completion of the polymerisation process the test specimens are additionally tempered at 100° C. for 2 hours.

A short description of data set [2]: Photochromy observed in solution and in the glass. As for the experimental part: (ix) 1 g of the above reaction product is dissolved in 50 ml of absolute THF while stirring and cooled in an ice bath. Lithium aluminium hydride is added in small portions until the colour of the reaction solution does no longer brighten up. Stirring is then continued for another 10 min. and the solution is poured into water, acidified with conc. hydrochloric acid until the phases are clear whereupon the organic phase is isolated. After extraction with water, drying over sodium sulphate and removal of the solvent by rotation a brownish viscous residue remains which crystallises when methanol is added. The suspension is stirred at room temperature for some minutes more and then the precipitate is exhausted. The slightly brownish solid (0.8 g) was identified as 6-methoxy-3-(4-methoxy phenyl)-3-phenyl-13-hydroxy-benz[p]indeno[2,1-f]naphtho[1,2-b]pyrane by means of the NMR spectrum.

Data set [3] in a line: Brightening rate and brightening kinetics in the polymer Transhade-150. To be noted: for Δ(10 min, 23° C.) relative brightening: within 10 min at 23° C. The method, then: For a further illustration of the foregoing explanations comparative tests have been carried out again on the inventive compounds and on known compounds. The compounds used are derived from the compound of the following general formula: [drawing 5]
The brightening rate and the brightening kinetics were measured for differently substituted systems in the polymer Transhade-150 of the company of Tokuyama at different temperatures. The results obtained are summarised in the following, with the following terms being used:
Δ=relative brightening within 10 minutes at 23° C.
=100% (.tau.10 min-.tau.s)/(.tau.0-.tau.s)
.tau.s is the transmission achieved after 15 min of obscuration
.tau.0 is the transmission in the fully brightened condition
.tau.10 min is the transmission after 10 min brightening in the dark
T1/2 =time elapsing up to a brightening level corresponding to half the darkening level (half-period)
The brightening kinetics of differently substituted systems was determined, with R1, R2 and R3 representing either the methoxy group or hydrogen; the measurements were performed at 23° C. and 40° C.
Production of the test specimens:
as §1
Plotting of the kinetics graphs:
For the determination of the brightening rates the test specimens so produced were measured in a common kinetics test bench (irradiation with 50 klux in compliance with EN 1836, item 6.1.3.1.1). The exposure time was 15 minutes in each case, brightening takes place in the dark. During exposure and brightening the transmission graph--evaluated by the sensitivity to brightness of the human eye, V λ--is recorded. The glass temperature is controlled via a cuvette designed for being controlled by means of a thermostat.

[4] abbreviates: Table 3: R1 = OCH3, R2 = R3 = H.
The mark [5] stands for this setting: Table 4: R1 = R3 = OCH3, R2 = H.

In the case of `COc1ccc(C2(c3ccccc3)C=Cc3c4c(c5ccc(OC)cc5c3O2)-c2ccc3ccccc3c2C4O)cc1` (stereo not shown) [Example 1, 6-methoxy-3-(4-methoxyphenyl)-3-phenyl-13-hydroxy-benz[p]indeno[2,1-f]naphtho[1,2-b]pyrane], in data set [1], the max closed form was 385 nm, the colour entry is given as “green” and the max open form was 600 nm. Moreover, the photochromy colour entry in data set [2] is recorded as “green photochromy”.
In the case of `COc1ccc(C2(c3ccccc3)C=Cc3c4c(c5ccc(OC)cc5c3O2)-c2ccccc2C4O)cc1` (stereo not shown) [Example 3, 6-methoxy-3-(4-methoxyphenyl)-3-phenyl-13-hydroxy-indeno[2,1-f]-naphtho[1,2-b]pyrane], in data set [1], the “max closed form (shoulder)” value was determined as 375 nm, the max closed form was determined as 360 nm, the colour result is “blue” and the max open form is given as 575 nm.
As to `CCC1(O)c2ccccc2-c2c1c1c(c3cc(OC)ccc23)OC(c2ccccc2)(c2ccc(OC)cc2)C=C1` (stereo not shown) [Example 4, 6-methoxy-3-(4-methoxyphenyl)-3-phenyl-13-ethyl-13-hydroxy-indeno[2,1-f]naphtho[1,2-b]pyrane], in data set [3] (setting [4]), the “T1/2 (40° C.)” value worked out at 7.0 min and the “Δ(10 min, 23° C.) relative brightening” value was 25%.
As to `COc1ccc(C2(c3ccccc3)C=Cc3c4c(c5ccc(OC)cc5c3O2)-c2ccccc2C4(O)c2ccccc2)cc1` (stereo not shown) [Example 5, 13-hydroxy-6-methoxy-3-(4-methoxyphenyl)-3,13-diphenyl indeno[2,1-f]-naphtho[1,2-b]pyrane], in data set [3] (setting [4]), the “T1/2 (40° C.)” value came to 7.0 min and the “Δ(10 min, 23° C.) relative brightening” value was 22%.
As to `COc1ccc(C2(c3ccccc3)C=Cc3c4c(c5ccc(OC)cc5c3O2)-c2ccccc2C4(O)c2cccc3ccccc23)cc1` (stereo not shown) [Example 6, 6-methoxy-3-(4-methoxyphenyl)-3-phenyl-13-(1-naphthyl)-13-hydroxy-indeno [2,1-f]-naphtho[1,2-b]pyrane], in data set [3] (setting [4]), the “T1/2 (40° C.)” value is 5.0 min and the “Δ(10 min, 23° C.) relative brightening” value is listed as 29%.
For `COc1ccc(C2(c3ccccc3)C=Cc3c4c(c5ccc(OC)cc5c3O2)-c2ccccc2C4(O)c2ccccc2C)cc1` (stereo not shown) [Example 7], in data set [3] (setting [4]), the “T1/2 (40° C.)” value was determined as 4.2 min and the “Δ(10 min, 23° C.) relative brightening” value worked out at 34%.
On to `COc1ccc(C2(c3ccccc3)C=Cc3c4c(c5ccc(OC)cc5c3O2)-c2ccccc2C4(O)c2cc(C)ccc2C)cc1` (stereo not shown) [Example 8, 6-methoxy-3-(4-methoxyphenyl)-3-phenyl-13-(2,5-dimethylphenyl)-13-hydroxy-indeno[2,1-f]naphtho[1,2-b]pyrane], for which, in data set [3] (setting [4]), the “T1/2 (40° C.)” value came to 4.0 min and the “Δ(10 min, 23° C.) relative brightening” value stood at 36%.
Taken in the same sequence, the figures for `COc1ccc(C2(c3ccccc3)C=Cc3c4c(c5ccc(OC)cc5c3O2)-c2ccccc2C4(O)c2sccc2C)cc1` (stereo not shown) [Example 9, 6-methoxy-3-(4-methoxyphenyl)-3-phenyl-13-(3-methyl-2-thienyl)-13-hydroxy-indeno[2,1-f]naphtho[1,2-b]pyrane] were 3.4 min and 38%.
For the compound `COc1ccc(C2(c3ccc(OC)cc3)C=Cc3c4c(c5ccc(C)cc5c3O2)-c2ccc(C)cc2C4O)cc1` (stereo not shown) [Example V2], in data set [1], the “max closed form (shoulder)” value is on record as 375 nm, the max closed form is on record as 350 nm, the colour entry was “blue-violet” and the max open form is on record as 570 nm.
Consider `COc1ccc(C2(c3ccc(OC)cc3)C=Cc3c4c(c5ccc(OC)cc5c3O2)-c2ccccc2C4(O)c2ccccc2)cc1` (stereo not shown) [Example V3], for which, in data set [3] (setting [5]), the “T1/2 (40° C.)” value is 2.5 min and the “Δ(10 min, 23° C.) relative brightening” value came to 43%.
With `COc1ccc(C2(c3ccc(OC)cc3)C=Cc3c4c(c5ccc(OC)cc5c3O2)-c2ccccc2C4(O)c2cccc3ccccc23)cc1` (stereo not shown) [Example V4], in data set [3] (setting [5]), the “T1/2 (40° C.)” value was 2.5 min and the “Δ(10 min, 23° C.) relative brightening” value is recorded as 44%.
